According to PubChem BioAssay (NCI):
Values joined by “and” are separate entries in the source; they are usually repeats but may differ in a detail not shown here. Equal entries are not always repeated.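 96-well plates; 48 h exposure; 5 concentrations. Endpoints by linear interpolation between flanking doses. Not reached: highest tested concentration assigned. Abbreviation: GI50, concentration required for 50% inhibition of growth. Definition used: TGI = concentration required for complete inhibition of growth.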

Assays:
Assay in all cases: growth of human tumour cells (NCI), 48 h
HOP-62 NSCLC = tested on: HOP-62 NSCLC
UO-31 renal = tested on: UO-31 renal
SK-MEL-2 melanoma = tested on: SK-MEL-2 melanoma
HT29 colon = tested on: HT29 colon
NCI-H23 lung = tested on: NCI-H23 lung
RPMI-8226 leukemia = tested on: RPMI-8226 leukemia
LOX IMVI melanoma = tested on: LOX IMVI melanoma
OVCAR-3 ovarian = tested on: OVCAR-3 ovarian
HS 578T breast = tested on: HS 578T breast
MCF7 breast = tested on: MCF7 breast

Row | SMILES | TGI (HOP-62 NSCLC) [µM] | TGI (UO-31 renal) | TGI (SK-MEL-2 melanoma) [µM] | TGI (HT29 colon) [µM] | TGI (NCI-H23 lung) [µM] | TGI (RPMI-8226 leukemia) [µM] | TGI (LOX IMVI melanoma) [µM] | TGI (OVCAR-3 ovarian) [µM] | TGI (HS 578T breast) [µM] | TGI (MCF7 breast) [µM] | GI50 (RPMI-8226 leukemia) [µM] | GI50 (HOP-62 NSCLC) [µM] | GI50 (UO-31 renal) [µM] | GI50 (LOX IMVI melanoma) [µM] | GI50 (SK-MEL-2 melanoma) [µM] | GI50 (HT29 colon) [µM] | GI50 (NCI-H23 lung) [µM] | GI50 (OVCAR-3 ovarian) [µM] | GI50 (HS 578T breast) [µM] | GI50 (MCF7 breast) [µM]
1 | Nc1ccc(-c2nc3cc(F)ccc3s2)cc1I | 33.6 | > 65.2 µM | 50.6 | > 100 | 18.9 | > 100 | > 100 | > 37.9 | > 75.1 | 3.91 |  |  |  |  |  |  |  |  |  | 
2 | Cc1cc(=O)n2nc(CSc3nnc(N)s3)sc2n1 | > 100 | > 100 µM | > 100 | > 100 | > 100 | > 100 | > 100 | > 100 | > 100 | > 100 |  |  |  |  |  |  |  |  |  | 
3 | NS(=O)(=O)c1ccc(Nc2c3ccccc3nc3c(C(=O)NCCCN(CCO)CCO)cccc23)cc1 | 66.1 | > 100 µM | 58.9 | 77 | 53.8 | 78.7 | 59.1 | 62.5 | 53.8 | 20.1 |  |  |  |  |  |  |  |  |  | 
4 | CCCC(CC)c1c(O)c(O)c(C(CC)CCC)c(C(CC)CCC)c1C(CC)CCC (stereo not given) | > 10 | > 10 µM | > 10 | > 10 | > 10 | > 10 | > 10 | > 10 | > 10 | > 10 |  |  |  |  |  |  |  |  |  | 
5 | COC(=O)c1ccccc1C#CCCCOS(C)(=O)=O | > 10 | > 10 µM | > 10 | > 10 | > 10 | > 10 | > 10 | > 10 | > 10 | > 10 |  |  |  |  |  |  |  |  |  | 
6 | CCOC(=O)C1=C(C)C(C(=O)OC)/C(=C/c2cccc3cccnc23)C1=O (stereo not given) | > 10 | > 10 µM | > 10 | > 10 | > 10 | > 10 | > 10 | > 10 | > 10 | > 10 |  |  |  |  |  |  |  |  |  | 
7 | O=c1[nH]c2cc3cccnc3c(Cl)c2nc1C(F)(F)F | > 100 | > 100 µM | > 100 | > 100 | > 100 | > 100 | > 100 | > 100 | > 100 | > 100 |  |  |  |  |  |  |  |  |  | 
8 | COc1ccccc1NC(=S)N/N=C(/C)c1ccccn1 | 36.7 | > 83.4 µM | > 88.7 | > 100 | > 100 | > 100 | 67.2 |  | > 100 | > 100 |  |  |  |  |  |  |  |  |  | 
9 | C=CCN(c1cc(OCc2ccccc2)c(NC(C)=O)cc1[N+](=O)[O-])S(C)(=O)=O | 53 | > 100 µM | 73.1 | > 100 | 32.3 | > 100 | > 100 | > 100 | 56.7 | > 100 |  |  |  |  |  |  |  |  |  | 
10 | COc1ccc(C(=C(I)c2ccccc2)c2ccc(OC)cc2)cc1 | > 100 | > 100 µM | > 100 | > 100 | > 100 | > 100 | > 100 | > 100 | > 100 | > 100 |  |  |  |  |  |  |  |  |  | 
11 | CCN(CC)C(=S)N/N=C/c1ccccn1 |  | 2.1 µM | > 100 | > 100 |  | > 100 | 0.27 | 11 | > 100 | 26 |  |  |  |  |  |  |  |  |  | 
12 | CCc1nn(S(=O)(=O)c2ccc(C)cc2)c2c1CS(=O)(=O)CC2 | > 100 | > 100 µM | > 100 | > 100 | > 100 | > 100 |  | > 100 | 87.7 | > 100 |  |  |  |  |  |  |  |  |  | 
13 | O=C1C=C2CO[C@H]3OC[C@H](O)[C@@H]1[C@@H]23 | > 100 | > 100 µM | 37.3 | > 100 | > 100 | 44.8 | > 100 | > 100 | > 100 | > 100 |  |  |  |  |  |  |  |  |  | 
14 | Cc1ccc(C)c(COCCOCn2cc(Br)c(N)nc2=O)c1 | > 100 | > 100 µM | > 100 |  | > 100 |  | > 100 | > 100 | > 100 | > 100 |  |  |  |  |  |  |  |  |  | 
15 | C=C1C(=O)O[C@H]2C/C(C)=C/CC/C(C)=C/CC[C@@](C)(O)[C@@H](I)C[C@@H]12 | 30.9 | 24.5 µM | 25.8 | 26.8 | 2.43 | 12.9 | 3.31 | 24.9 | 21.5 | 25.1 |  |  |  |  |  |  |  |  |  | 
16 | Cc1cc2ccccc2n1CC(=O)N1CCCC1 | > 100 | > 100 µM | > 100 | > 100 | > 100 | > 100 | > 100 | > 100 | > 100 | > 100 |  |  |  |  |  |  |  |  |  | 
17 | Cc1cc(N=Cc2c(CO)cnc(C)c2O)c(N=Cc2c(CO)cnc(C)c2O)cc1C.[Zn] | > 100 | > 100 µM | > 100 | > 100 |  | > 100 | > 100 | > 100 | > 100 | > 100 | > 100 |  |  |  |  |  |  |  |  | 

Row | SMILES | TGI (HOP-62 NSCLC) [µM] | TGI (UO-31 renal) | TGI (SK-MEL-2 melanoma) [µM] | TGI (HT29 colon) [µM] | TGI (NCI-H23 lung) [µM] | TGI (RPMI-8226 leukemia) [µM] | TGI (LOX IMVI melanoma) [µM] | TGI (OVCAR-3 ovarian) [µM] | TGI (HS 578T breast) [µM] | TGI (MCF7 breast) [µM] | GI50 (RPMI-8226 leukemia) [µM] | GI50 (HOP-62 NSCLC) [µM] | GI50 (UO-31 renal) [µM] | GI50 (LOX IMVI melanoma) [µM] | GI50 (SK-MEL-2 melanoma) [µM] | GI50 (HT29 colon) [µM] | GI50 (NCI-H23 lung) [µM] | GI50 (OVCAR-3 ovarian) [µM] | GI50 (HS 578T breast) [µM] | GI50 (MCF7 breast) [µM]
18 | Cc1ccc(-n2c(O)c3c(N)n[nH]c3c(C#N)c2=O)cc1 |  | > 100 µM | > 100 | > 100 | > 100 | > 100 | > 100 | > 100 | > 100 | > 100 |  |  |  |  |  |  |  |  |  | 
19 | C=C(CC(=O)Nc1ccc(C(=O)OC)o1)C(=O)OC | > 100 | 39.5 µM | 46.7 | 70.2 | 72.7 |  | > 100 |  | > 100 | 54 |  |  |  |  |  |  |  |  |  | 
20 | Cn1c(-c2ccc[se]2)ccc1-c1ccc(CO)[se]1 |  | > 100 µM | > 100 |  | > 84.3 | > 100 | > 64.1 |  | > 100 | > 100 |  |  |  |  |  |  |  |  |  | 
21 | S=c1nc2[nH]c3ccc(Br)cc3c2n[nH]1 |  | > 100 µM | 90 | > 100 |  | > 100 | 79.7 | > 100 | > 100 | 44.4 |  |  |  |  |  |  |  |  |  | 
22 | CC1(C)[C@@H](Cn2cnc3c(=O)[nH]c(N)nc32)CC[C@@]1(C)CO | > 100 | > 100 µM | > 100 |  |  | > 100 | > 100 | > 100 | > 100 | > 100 |  |  |  |  |  |  |  |  |  | 
23 | CCCn1c(=O)c2ccccc2[n+]2c(-c3ccc([N+](=O)[O-])cc3)csc12 | 80.8 | 97.3 µM | > 100 | > 100 | > 100 | 55.7 | 51.3 |  | > 100 | > 100 |  |  |  |  |  |  |  |  |  | 
24 | Cc1ccc(S(=O)(=O)NC(=O)NCCC(=O)O)cc1 | > 100 | > 100 µM | > 100 | > 100 | > 100 | > 100 | > 100 |  | > 100 | > 100 |  |  |  |  |  |  |  |  |  | 
25 | O=C1CCCC2=C1C(c1ccc3c(c1)OCO3)Nc1ccc3ccccc3c12 (stereo not given) | > 100 | > 100 µM | > 100 | > 100 | > 100 | > 100 |  | > 100 | > 100 | > 100 |  |  |  |  |  |  |  |  |  | 
26 | COc1cc(/C=C2\N=C(c3ccccc3)N(/N=C3\C(=O)Nc4ccccc43)C2=O)cc(OC)c1OC | > 100 | > 100 µM | > 100 | > 100 | > 100 |  | > 100 | > 100 | > 100 | > 100 |  |  |  |  |  |  |  |  |  | 
27 | Cc1cn(CC2=NCCCN2)c(=O)[nH]c1=O | > 100 | > 100 µM | > 100 | > 100 | > 100 | > 100 | > 100 |  | > 100 | > 100 |  |  |  |  |  |  |  |  |  | 
28 | CN(C)CCCNc1c2ccccc2nc2cccc([N+](=O)[O-])c12 |  | 0.0107 µM and 0.0363 µM | 0.00221 |  |  |  |  | 0.0673 | 0.0148 | 0.00188 |  | 0.0222 | < 0.001 | 0.019 |  |  |  |  |  | 
29 | Nc1ccccc1NC(=O)CCCCCCC(=O)Nc1ccc2c(c1)/C(=C/c1ccc[nH]1)C(=O)N2 |  | > 100 µM | > 100 | > 100 | > 100 | > 100 | > 100 | > 100 | > 100 | > 100 | 2.47 |  | 2.21 | > 100 | 5.73 | > 100 | > 100 | 5.42 | 47.6 | 3.6
30 | COc1ccc(-c2nc(-c3cc4ccccc4oc3=O)cs2)cc1 | 96.4 | > 100 µM | > 100 | > 100 |  | > 100 | > 100 |  | > 100 | > 100 |  |  |  |  |  |  |  |  |  | 
31 | Cc1cccc2nc3cccc(C(=O)NCCC[N+](C)(CCCNC(=O)c4cccc5nc6cccc(C)c6nc45)Cc4c([N+](=O)[O-])ncn4C)c3nc12 |  | > 1100 µM | > 1100 | 96.5 | > 1100 | 0.521 | 18.8 | > 1100 | > 1100 | 96.9 |  |  | 48.7 |  | 260 | 1.96 | 370 |  |  | 2.34
32 | COc1ccc(Oc2nc3ccc(C(F)(F)F)cc3nc2-c2ccccc2)cc1 | > 100 | > 100 µM | > 100 | > 100 |  | > 100 | > 100 | > 100 | > 100 | > 100 |  |  |  |  |  |  |  |  |  | 
33 | O=C(NCCCCNCCCNC(=O)c1ccccc1)c1ccccc1 | > 100 | > 100 µM | > 100 | > 100 | > 100 | > 100 |  | > 100 | > 100 | > 100 |  |  |  |  |  |  |  |  |  | 
